# Structures can show the parent of a compound that is named as a salt. Where two headings read alike, the source gives them in different places.
# Tests used:
# [1] = target: HIV-1 RT (Human immunodeficiency virus type 1 group M subtype B, UniProt P03366); assay: HIV Reverse Transcriptase Assay: Inhibitor IC50 Determination; type: biochemical
# Experimental: HIV Reverse Transcriptase Assay: Inhibitor IC50 Determination
# HIV-1 RT assay was carried out in 96-well Millipore MultiScreen MADVNOB50 plates using purified recombinant enzyme and a poly(rA)/oligo(dT)16 template-primer in a total volume of 50 μL. The assay constituents were 50 mM Tris/HCl, 50 mM NaCl, 1 mM EDTA, 6 mM MgCl2, 5 μM dTTP, 0.15 μCi [^3H] dTTP, 5 μg/ml poly (rA) pre annealed to 2.5 μg/ml oligo (dT)16 and a range of inhibitor concentrations in a final concentration of 10% DMSO. Reactions were initiated by adding 4 nM HIV-1 RT and after incubation at 37° C. for 30 min, they were stopped by the addition of 50 μl ice cold 20% TCA and allowed to precipitate at 4° C. for 30 min. The precipitates were collected by applying vacuum to the plate and sequentially washing with 3×200 μl of 10% TCA and 2×200 μl 70% ethanol. Finally, the plates were dried and radioactivity counted in a Packard TopCounter after the addition of 25 μl scintillation fluid per well. IC50's were calculated by plotting % inhibition versus log10 inhibitor concentrations.
# [2] = tested on: HIV; assay: Anti-viral Assay (method of Pauwels et al.); type: cell-based; conditions: Human immunodeficiency virus 1
# Experimental: Anti-viral assays were carried out by the method described by R. E. Pauwels et al. J. Virol. Methods 1988 20(4):309–322.
# [3] = purified recombinant enzyme, poly(rA)/oligo(dT)16 template-primer, 37° C. 30 min, read-out: RT inhibition
Compound,IC50 [1],melting point,EC50 [2],"IC50 [1, 3]"
"CCC(=O)NS(=O)(=O)c1ccc(NC(=O)Cc2ccc(Br)c(Oc3cc(Cl)cc(C#N)c3)c2F)c(Cl)c1 [Compound I-63, 2-[4-Bromo-3-(3-chloro-5-cyano-phenoxy)-2-fluoro-phenyl]-N-(2-chloro-4-propionylsulfamoyl-phenyl)-acetamide; sodium salt]",5.8 nM,,,
"Cc1ccc(CC(=O)Nc2ccc(S(N)(=O)=O)cc2Cl)c(F)c1Oc1cc(Cl)cc(C#N)c1 [Compound I-83, 2-[3-(3-Chloro-5-cyano-phenoxy)-2-fluoro-4-methyl-phenyl]-N-(2-chloro-4-sulfamoyl-phenyl)-acetamide]",,228.9 to 230.6 °C,0.9 nM,8.1 nM
"Cc1ccc(CC(=O)Nc2ccc(S(N)(=O)=O)cc2Cl)c(F)c1Oc1cc(C#N)cc(C(F)F)c1 [Compound I-84, N-(2-Chloro-4-sulfamoyl-phenyl)-2-[3-(3-cyano-5-difluoromethyl-phenoxy)-2-fluoro-4-methyl-phenyl]-acetamide]",,218 to 218.7 °C,0.4 nM,14 nM
"N#Cc1cc(Cl)cc(Oc2c(Br)ccc(CC(=O)Nc3ccc(S(N)(=O)=O)cc3Cl)c2F)c1 [Compound I-109, 2-[4-Bromo-3-(3-chloro-5-cyano-phenoxy)-2-fluoro-phenyl]-N-(2-chloro-4-sulfamoyl-phenyl)-acetamide]",13.6 nM,165 to 166.6 °C,1.3 nM,
"CC(C)[C@H](N)C(=O)NS(=O)(=O)c1ccc(NC(=O)Cc2ccc(Cl)c(Oc3cc(Cl)cc(C#N)c3)c2F)c(Cl)c1.[Na] [Compound I-127, N-[4-((S)-2-Amino-3-methyl-butyrylsulfamoyl)-2-chloro-phenyl]-2-[4-chloro-3-(3-chloro-5-cyano-phenoxy)-2-fluoro-phenyl]-acetamide; sodium salt]",5.9 nM,219.4 to 220.2 °C,,
"CCCC(=O)NS(=O)(=O)c1ccc(NC(=O)Cc2ccc(Cl)c(Oc3cc(Cl)cc(C#N)c3)c2F)c(Cl)c1.[Na] [Compound I-138, N-(4-Butyrylsulfamoyl-2-chloro-phenyl)-2-[4-chloro-3-(3-chloro-5-cyano-phenoxy)-2-fluoro-phenyl]-acetamide; sodium salt]",4.5 nM,157.2 to 157.9 °C,,
"CCc1ccc(CC(=O)Nc2ccc(S(N)(=O)=O)cc2Cl)cc1Oc1cc(C#N)cc(C(F)F)c1 [Compound I-140, N-(2-Chloro-4-sulfamoyl-phenyl)-2-[3-(3-cyano-5-difluoromethyl-phenoxy)-4-ethyl-phenyl]-acetamide]",,191.8 to 192.5 °C,0.4 nM,21 nM
"N#Cc1cc(Oc2c(Br)ccc(CC(=O)Nc3ccc(S(N)(=O)=O)cc3Cl)c2F)cc(C(F)F)c1 [Compound I-165, 2-[4-Bromo-3-(3-cyano-5-difluoromethyl-phenoxy)-2-fluoro-phenyl]-N-(2-chloro-4-sulfamoyl-phenyl)-acetamide]",,205.4 to 207.7 °C,0.4 nM,21 nM
"Cc1cc(S(N)(=O)=O)ccc1NC(=O)Cc1ccc(Br)c(Oc2cc(C#N)cc(C(F)F)c2)c1F [Compound I-169, 2-[4-Bromo-3-(3-cyano-5-difluoromethyl-phenoxy)-2-fluoro-phenyl]-N-(2-methyl-4-sulfamoyl-phenyl)-acetamide]",,223.9 to 225 °C,0.4 nM,27 nM
"COCC(=O)N(C)S(=O)(=O)c1ccc(NC(=O)Cc2ccc(Cl)c(Oc3cc(Cl)cc(C#N)c3)c2F)c(Cl)c1 [Compound I-171, 2-[4-Chloro-3-(3-chloro-5-cyano-phenoxy)-2-fluoro-phenyl]-N-{2-chloro-4-[(2-methoxy-acetyl)-methyl-sulfamoyl]-phenyl}-acetamide]",,183.2 to 185.5 °C,,
"COCCC(=O)N(C)S(=O)(=O)c1ccc(NC(=O)Cc2ccc(Cl)c(Oc3cc(Cl)cc(C#N)c3)c2F)c(Cl)c1 [Compound I-172, 2-[4-Chloro-3-(3-chloro-5-cyano-phenoxy)-2-fluoro-phenyl]-N-{2-chloro-4-[(3-methoxy-propionyl)-methyl-sulfamoyl]-phenyl}-acetamide]",,199.3 to 203 °C,,
"CCOC(=O)C(=O)Nc1ccc(NC(=O)Cc2ccc(C)c(Oc3cc(Cl)cc(C#N)c3)c2)c(C)c1 [Compound I-178, N-(4-{2-[3-(3-Chloro-5-cyano-phenoxy)-4-methyl-phenyl]-acetylamino}-3-methyl-phenyl)-oxalamic acid ethyl ester]",,182.5 to 183.9 °C,,
"CCc1ccc(CC(=O)Nc2ccc(S(N)(=O)=O)cc2Cl)c(F)c1Oc1cc(C#N)cc(C(F)F)c1 [Compound I-179, N-(2-Chloro-4-sulfamoyl-phenyl)-2-[3-(3-cyano-5-difluoromethyl-phenoxy)-4-ethyl-2-fluoro-phenyl]-acetamide]",,239.6 to 240.7 °C,0.4 nM,7.4 nM
"CCc1ccc(CC(=O)Nc2ccc(S(N)(=O)=O)cc2C)c(F)c1Oc1cc(C#N)cc(C(F)F)c1 [Compound I-180, 2-[3-(3-Cyano-5-difluoromethyl-phenoxy)-4-ethyl-2-fluoro-phenyl]-N-(2-methyl-4-sulfamoyl-phenyl)-acetamide]",,237.6 to 238.4 °C,,9.1 nM
"Cc1cc(CC(=O)Nc2ccc(S(N)(=O)=O)cc2)cc(Oc2cc(Cl)cc(C#N)c2)c1C [Compound I-182, 2-[3-(3-Chloro-5-cyano-phenoxy)-4,5-dimethyl-phenyl]-N-(4-sulfamoyl-phenyl)-acetamide]",,229.7 to 231.3 °C,,
"Cc1cc(S(N)(=O)=O)ccc1NC(=O)Cc1cc(C)c(C)c(Oc2cc(Cl)cc(C#N)c2)c1 [Compound I-183, 2-[3-(3-Chloro-5-cyano-phenoxy)-4,5-dimethyl-phenyl]-N-(2-methyl-4-sulfamoyl-phenyl)-acetamide]",,230.8 to 233.4 °C,,
"Cc1cc(CC(=O)Nc2ccc(S(N)(=O)=O)cc2Cl)cc(Oc2cc(Cl)cc(C#N)c2)c1C [Compound I-184, 2-[3-(3-Chloro-5-cyano-phenoxy)-4,5-dimethyl-phenyl]-N-(2-chloro-4-sulfamoyl-phenyl)-acetamide]",,224.3 to 225.7 °C,,
"Cc1cc(S(N)(=O)=O)ccc1NC(=O)Cc1ccc(Cl)c(Oc2cc(Br)cc(C#N)c2)c1F [Compound I-185, 2-[3-(3-Bromo-5-cyano-phenoxy)-4-chloro-2-fluoro-phenyl]-N-(2-methyl-4-sulfamoyl-phenyl)-acetamide]",,246 to 250.6 °C,,
"Cc1cc(S(N)(=O)=O)ccc1NC(=O)Cc1ccc(Cl)c(Oc2cc(C#N)cc(C#CCO)c2)c1F [Compound I-186, 2-{4-Chloro-3-[3-cyano-5-(3-hydroxy-prop-1-ynyl)-phenoxy]-2-fluoro-phenyl}-N-(2-methyl-4-sulfamoyl-phenyl)-acetamide]",,170.1 to 173.2 °C,,
"Cc1cc(S(N)(=O)=O)ccc1NC(=O)Cc1ccc(Cl)c(Oc2cc(C#N)cc(C#CCN(C)C)c2)c1F [Compound I-187, 2-{4-Chloro-3-[3-cyano-5-(3-dimethylamino-prop-1-ynyl)-phenoxy]-2-fluoro-phenyl}-N-(2-methyl-4-sulfamoyl-phenyl)-acetamide]",,156.2 to 158.2 °C,,
"N#Cc1cc(Cl)cc(Oc2c(Cl)ccc(CC(=O)Nc3ccc(S(=O)(=O)NC(=O)CCC(=O)O)cc3Cl)c2F)c1 [Compound I-188, 4-(3-Chloro-4-{2-[4-chloro-3-(3-chloro-5-cyano-phenoxy)-2-fluoro-phenyl]-acetylamino}-benzenesulfonylamino)-4-oxo-butyric acid]",,143.4 to 144 °C,,
"COc1ccc(CC(=O)Nc2ccc(S(N)(=O)=O)cc2Cl)c(F)c1Oc1cc(Cl)cc(C#N)c1 [Compound I-190, 2-[3-(3-Chloro-5-cyano-phenoxy)-2-fluoro-4-methoxy-phenyl]-N-(2-chloro-4-sulfamoyl-phenyl)-acetamide]",,212 to 212.8 °C,,
"COc1ccc(CC(=O)Nc2ccc(S(N)(=O)=O)cc2C)c(F)c1Oc1cc(Cl)cc(C#N)c1 [Compound I-191, 2-[3-(3-Chloro-5-cyano-phenoxy)-2-fluoro-4-methoxy-phenyl]-N-(2-methyl-4-sulfamoyl-phenyl)-acetamide]",,239.9 to 240.8 °C,,

# Source: patent US7166738B2, “Non-nucleoside reverse transcriptase inhibitors” (Roche Palo Alto LLC, priority 2004, dated 2007)
